Test results: patent US20150290105A1, “COMPOSITION COMPRISING SYRINGARESINOL FOR IMPROVING THE SKIN” (AMOREPACIFIC CORPORATION, priority 2011, published 2015)

Columns and labels:
[1] = test system: Melanocytes (Mel-Ab cells); assay: Melanin production inhibiting effect in mouse melanocytes; format: cell-based; details: Mus musculus, Mel-Ab; read-out: Melanin production inhibiting rate (%)
Experimental: The melanin production inhibiting effect of the syringaresinol obtained in Example was evaluated using mouse melanocytes. First, melanocytes (Mel-Ab cells) derived from C57BL/6 (treated with Dooley et al.'s method) were cultured under the condition of 37° C. and 5% CO2 in Dulbecco's modified Eagle's medium (DMEM) containing 10% fetal bovine serum, 100 nM 12-O-tetradecanoylphorbol-13-acetate and 1 nM cholera toxin. […] After removing the culture medium and washing with PBS, the cells were dissolved with 1 N sodium hydroxide and absorbance was measured at 400 nm. Melanin production inhibiting rate (%) was calculated according to Equation 2 from the measured absorbance. Melanin production inhibiting rate (%)=100−(Absorbance of test substance) /(Absorbance of control substance)×100 [Equation 2]

[2] = Skin whitening effect when applied to UVB-tanned human skin; format: in vivo; details: 1% applied on upper arm after UVB, 10 weeks, 12 male subjects
Experimental: First, opaque tapes having holes of 1.5 cm in diameter were attached on the upper arms of 12 healthy male subjects and UVB of about 1.5-2 times the minimal erythemal dose was irradiated to each subject to induce skin tanning. […] Then, the change was monitored for 10 weeks. The color of the skin was measured with 1-week interval using the CR2002 colorimeter (Minolta, Japan). The change in skin color (ΔL*) between the time when the test substance was applied and the time when the test was completed was calculated according to Equation 3. Skin whitening effect is evaluated by comparing the ΔL* of the part where the test substance was applied with that of the control part. A ΔL* value of about 2 can be interpreted as distinct skin whitening effect and one about 1.5 can be evaluated as positive skin whitening effect.
ΔL*=(L* when test was completed)−(L* when test substance was applied) [Equation 3]

[3] = test system: mushroom-derived tyrosinase; assay: Tyrosinase activity inhibiting effect (dopachrome formation); format: biochemical; details: 10 ppm, 37° C. 10 minutes
Experimental: The reaction solution was prepared by adding 500 μL of 0.1 M PBS, 15 μg of L-tyrosine and 50 μL of syringaresinol and then adding distilled water to make the final volume 1500 μL. A solution prepared through the same procedure but with Kojic acid instead of syringaresinol was used as a positive control. The concentration of all the samples used in experiment was set to 10 ppm. After adding 10 units of mushroom-derived tyrosinase to the reaction solution, followed by reaction at 37° C. for 10 minutes, the reaction was stopped by quickly transferring onto ice for 5 minutes. The synthesis rate of dopachrome produced was determined by measuring absorbance at 475 nm and tyrosinase activity inhibiting rate (%) was calculated therefrom.

[4] = Skin whitening effect when orally administered, UV-irradiated brown guinea pig; format: in vivo; details: 1% in feed, 5 weeks, oral
Experimental: Minimal erythemal dose was measured after irradiating UV to guinea pigs. After grouping the guinea pigs with 10 per each group, UV of the minimal erythemal dose was irradiated once a day, for a total of 3 times. The guinea pigs were allowed free access to feed for 5 weeks. The feed contained 1% syringaresinol or 1% vitamin C (Vit C) as a positive control. Skin pigmentation was measure using a colorimeter in substantially the same manner as in Test Example 6.

## Oc1ccc(O)cc1 [Hydroquinone, hydroquinone, reference compound]
[1]
  inhibition at 10 ppm: 58.9%
[2]
  Change in skin brightness (ΔL*): 1.71 ± 0.31

## O=c1cc(CO)occ1O [Kojic acid, reference compound]
[3]
  Tyrosinase activity inhibiting rate (%): 67.8%

## O=C1O[C@H]([C@@H](O)CO)C(O)=C1O [Vitamin C, vitamin C, reference compound]
[4]
  Skin color brightness (ΔL*): 1.48 ± 0.71
